# Experimental data reported in ChEMBL document CHEMBL3507680, “University of Dundee, Gates Library screen for HepG2 cell viability”.
# Test: Human HepG2 cell viability assay in 384 well format
# Type: toxicity, cell-based
# Design: dose 125 nL, time 70.5 hour; cytotoxicity at 70.5 h: concentration not given beside the values
# Conditions: HepG2 cells, read-out: Inhibition
row,SMILES,cytotoxicity at 70.5 h [%]
1,CC(C)NC(=O)N1CCc2onc(C(=O)Nc3cccnc3)c2C1,-9.09
2,O=C(c1ccc(F)cc1)N1CC[C@H]2[C@H]1CCN2CC1CC1,-17.1
3,COCCN1C[C@@H](c2ccccc2)[C@@]2(CCN(CC(=O)N(C)C)C2=O)C1,-9.6
4,Cc1ccc(CN2CCC3(CCC(C(=O)N(C)C)O3)CC2)o1 (stereo unspecified),-23.2
5,C[C@@H]1CN(Cc2ccoc2)C[C@]12CCN(CC(=O)N(C)C)C2=O,-12
6,C[C@H]1CN(Cc2cccc(F)c2)C[C@@]12CCN(CC(=O)N(C)C)C2=O,-5.99
7,COc1ccc(CN2CCc3[nH]nc(C(=O)N(C)C)c3C2)cc1,-8.01
8,CC1c2ncc(CNC(=O)C3CC3)n2CCN1Cc1nccs1 (stereo unspecified),-7.88
9,CC(C)CCN1C[C@@H]2OCCN(c3ncc(F)cn3)[C@@H]2C1,-4.42
10,Cc1ccc(CN2CCc3ncnc(-c4ccoc4)c3CC2)o1,2.47
11,CS(=O)(=O)NC[C@H]1OC[C@H]2CN(Cc3ccsc3)CC[C@H]21,2.09
12,Cn1cc(CN2CCn3cnc(COCC4CC4)c3C2)cn1,14.1
13,Cc1nc(COCc2cnc3n2CCN(C)C3C)cs1 (stereo unspecified),-1.73
14,CO[C@@H]1CCN(S(=O)(=O)c2cn(C)cn2)[C@H]1Cc1cnn(C)c1,-0.546
15,Cc1noc(C)c1CN1CC[C@@H]2O[C@H](COCC3CC3)CC[C@@H]21,-4.64
16,CCOC[C@H]1CC[C@H]2[C@H](CCN2Cc2c(C)noc2C)O1,-3.26
17,Cc1ccc(CN2CCCn3cnc(COCC4CC4)c3C2)o1,-1.19
18,CO[C@H]1CCN(S(=O)(=O)c2cn(C)cn2)[C@H]1Cc1ccccc1,0.174
19,Cc1noc(C)c1CN1CC[C@@H]2O[C@H](COCC(C)C)CC[C@@H]21,-3.29
20,O=C(c1cnccn1)N1CCN2C[C@H](Oc3cccc(F)c3)C[C@H]2C1,-2.2
21,CCO[C@H]1CCN(S(=O)(=O)c2cn(C)cn2)[C@H]1Cc1ccccc1,-1.16
22,CC(C)NC(=O)[C@@H]1CCO[C@@H]2CCN(c3ncccn3)C[C@@H]21,0.956
23,Cc1nnc(N2CC[C@@H](OCC3CC3)[C@@H](Cc3ccccc3)C2)s1,-7.86
24,CC(C)Oc1ncnc2c1CCN(Cc1ccoc1)CC2,-0.464
25,Cc1cnc(N2C[C@@H]3CN(Cc4ccco4)CCC[C@]3(C(=O)O)C2)nc1,-5.9
26,O=C([C@H]1CN(Cc2ccoc2)C[C@H]2OCC[C@@H]12)N1CCCCO1,-4.73

row,SMILES,cytotoxicity at 70.5 h [%]
1,O=S(=O)(Cc1ccccc1)N1CCCn2cnc(CN3CCCC3)c2C1,0.898
2,O=C(N[C@@H]1CN(c2ncccn2)C[C@@H]2CCCO[C@@H]21)c1cnccn1,2.24
3,Cc1noc(C)c1CN1CC[C@@H]2O[C@@H](COCC(C)C)CC[C@@H]21,3.11
4,O=C1[C@H]2CN(Cc3ccoc3)C[C@H]2CN1CCN1CCCC1,-12.5
5,Cc1ccc(CN2C[C@@H]3CCN(Cc4ccncc4)C(=O)[C@H]3C2)s1,-8.9
6,CN(C)CCN1C(=O)CCCC12CCCN(Cc1cccs1)C2 (stereo unspecified),-9.38
7,CCOCC(=O)N1CCC2(CC1)COCCN2CCN(C)C,-9.1
8,Cc1ccc(CN2CCc3nnc(COCCN(C)C)n3CC2)o1,-11.2
9,Cc1nc(CN2CCc3ncnc(-c4cccnc4)c3CC2)cs1,42.8
10,CC[C@@H]1N(Cc2ccncc2)CCC[C@]12CCC(=O)N2CCOC,-4.38
11,c1cc(CN2CC[C@@H]3[C@@H](CO[C@H]3CN3CCOCC3)C2)cs1,-1.87
12,Cc1ccc(CN2CCc3ncnc(-c4ccncc4)c3CC2)o1,-7.23
13,Cc1cccc(N2CCc3ncc(CNc4ccccn4)n3CC2)n1,-3.22
14,Cn1cnc2c1C(COCC1CC1)CN(c1ncccn1)C2 (stereo unspecified),2.85
15,O=C(NCc1ccccn1)[C@]12COC[C@H]1CN(Cc1ccsc1)C2,-0.962
16,CC1c2ncc(Cn3cccn3)n2CCN1Cc1cccnc1 (stereo unspecified),-1.36
17,Cc1cncc(C(=O)N2CCO[C@H]3[C@H](OCCN(C)C)CC[C@@H]32)c1,-12.9
18,COCCN1C[C@@H](C)[C@@]2(COCCN(C(=O)c3cccc(C)n3)C2)C1,0.709
19,O=C(c1ccc(F)cc1)N1CCN2C[C@H](Oc3cccnc3)C[C@H]2C1,0.416
20,COCCN1C[C@@H](C)[C@@]2(COCCN(C(=O)c3ccncc3)C2)C1,-3.32
21,COCCN1C[C@@H](C)[C@@]2(COCCN(C(=O)c3ccccn3)C2)C1,-4.02
22,Cn1cnc2c1C(COCc1ccccc1)N(Cc1ccccn1)CC2 (stereo unspecified),-0.00457
23,CC1c2ncc(CN3CCN(C)CC3)n2CCN1Cc1ccc(F)cc1 (stereo unspecified),-2.82
24,CN(C)[C@@H]1CCN(S(=O)(=O)c2cn(C)cn2)[C@H]1Cc1cccnc1,-2.89
25,CC1c2ncc(CN3CCN(C)CC3)n2CCN1Cc1ccccn1 (stereo unspecified),-0.798
